Columns and labels:
B. cenocepacia = settings: 4 h, pH 8.5
Summary of the method: (§1)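 Using MTT as a visual viability dye, MICs were scored as the lowest concentration with no visible growth. Prior to staining, ~5 × 10^5 CFU per well grew in MH medium for ca. 18 h at 37 °C under static conditions.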

S. aureus Newman = settings: Table S3; […] MH at pH 8.5
Summary of the method: as §1

P. aeruginosa PA14 = settings: Table S3; […] MH at pH 8.5, 16-20 hours at 37 °C
Summary of the method: as §1

S. maltophilia = settings: Table S3; […] MH at pH 8.5
Summary of the method: as §1

S. epidermis = settings: Table S3; […] MH at pH 8.5
Summary of the method: as §1

P. aeruginosa PAO1 [1] = experiment: Transmission electron microscopy (TEM); assay type: cell-based, Pseudomonas aeruginosa; settings: P. aeruginosa PAO1, 10 × MIC, […] MH at pH 8.5, 2 h at 37 °C
Description: Scale bars are 500 nm and 1 μm. Red arrows: membrane perturbations. Blue arrows: intracellular aggregation. Yellow arrows: empty area within the cell.
(§2) Just before the samples were further prepared for the microscopy, surviving bacteria were quantified by plating 10-fold dilutions of samples in sterilized normal saline (NaCl 0.9%) on LB agar plates. […] The assay was performed in triplicate. Each bacteria sample was centrifuged at 12,000 rpm for 3 min, and the supernatant was discarded. The samples were then further processed and imaged using our previously described protocol.[64]

PA14 4.18 (pmrB) = settings: diluted MH ([…] MH) at pH 8.5 (Table 2 footnote b)
Summary of the method: as §1

K. pneumoniae OXA-48 = settings: Table S3; […] MH at pH 8.5
Summary of the method: as §1

E. cloacae = settings: Table S3; […] MH at pH 8.5
Summary of the method: as §1

[2] = tested on: ZEM-1A (clinical MDR P. aeruginosa isolate); settings: Table S3; […] MH at pH 8.5
Summary of the method: as §1

E. coli W3110 = tested on: E. coli W3110
Summary of the method: as §1

PA14 4.13 (phoQ) = settings: diluted MH ([…] MH) at pH 8.5 (Table 2 footnote b)
Summary of the method: as §1

S. aureus COL (MRSA) = settings: Table S2
Summary of the method: as §1

K. pneumoniae NCTC418 = tested on: K. pneumoniae NCTC418
Summary of the method: (§3)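 MTT added (20–30 min, room temperature); MIC read by eye as lowest concentration inhibiting visible growth (yellow). Polymyxin B positive control from 16 μg/mL.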

PA14 2P4 (pmrB) = settings: diluted MH ([…] MH) at pH 8.5 (Table 2 footnote b)
Summary of the method: as §1

P. aeruginosa PAO1 [3] = tested on: P. aeruginosa PAO1
Summary of the method: as §1

[4] = tested on: ZEM9A (clinical MDR P. aeruginosa isolate); settings: Table S3; […] MH at pH 8.5
Summary of the method: as §1

A. baumannii ATCC19606 = tested on: A. baumannii ATCC19606
Summary of the method: as §3

P. aeruginosa PAO1 [5] = experiment: Bacterial count after treatment, before TEM sample preparation; assay type: cell-based, Pseudomonas aeruginosa; settings: P. aeruginosa PAO1, […] MH pH 8.5, 10x MIC
Description: as §2
8. Transmission electron microscopy (TEM)
Table S4: Bacterial counts, 2 hours after treatment, before TEM sample preparation. Data represents triplicates.
Bacteria count after treatment at 10x MIC and 2 h of incubation at 37 °C
Control (non-treated cells) 1 × 10^8 CFU (100)

[6] = Circular dichroism, α-helical content; assay type: physicochemical; settings: 0.1 mg/mL; for CD %α with 5 mM DPC: 10 mM phosphate buffer pH 7.4, 5 mM DPC; for CD %α with 20% TFE: 10 mM phosphate buffer pH 7.4, 20% TFE

## H-VDKPPYLPRPRPPRRIYNR-NH2 [Onc, reference compound]
B. cenocepacia
  MIC B. cenocepacia: 32 µg/mL
S. aureus Newman
  MIC S. aureus Newman: 1 µg/mL
P. aeruginosa PA14
  MIC P. aeruginosa PA14: 2 µg/mL
S. maltophilia
  MIC S. maltophilia: > 32 µg/mL
S. epidermis
  MIC S. epidermis: 4 µg/mL
P. aeruginosa PAO1 [1]
  TEM micrographs, changes in treated bacteria: aggregation of intracellular components
PA14 4.18 (pmrB)
  MIC PA14 4.18 (pmrB): 2 µg/mL
K. pneumoniae OXA-48
  MIC K. pneumoniae OXA-48: 1 µg/mL
E. cloacae
  MIC E. cloacae: 2 µg/mL
[2]
  MIC P. aeruginosa ZEM-1A: 2 µg/mL
E. coli W3110; E. coli W3110, […] MH at pH 8.5, up to 300 mM NaCl
  Antibacterial activity as a function of NaCl concentration: strongly reduced
E. coli W3110; Table S2, […] MH, pH 7.4
  MIC E. coli W3110 […] 7.4: 1 µg/mL
E. coli W3110; Table S2, […] MH, pH 8.5
  MIC E. coli W3110 […] 8.5: 1 µg/mL
E. coli W3110; Table S2, full MH, pH 7.4
  MIC E. coli W3110 Full MH 7.4: 4 µg/mL
E. coli W3110; Table S2, full MH, pH 8.5
  MIC E. coli W3110 Full MH 8.5: 1 µg/mL
E. coli W3110; […] MH vs full MH, E. coli
  Activity increase in dilute medium: 4 fold
PA14 4.13 (phoQ)
  MIC PA14 4.13 (phoQ): 2 µg/mL
S. aureus COL (MRSA); […] MH, pH 7.4
  MIC S. aureus COL (MRSA) […] 7.4: 32 µg/mL
S. aureus COL (MRSA); full MH, pH 7.4
  MIC S. aureus COL (MRSA) Full MH 7.4: > 32 µg/mL
S. aureus COL (MRSA); full MH, pH 8.5
  MIC S. aureus COL (MRSA) Full MH 8.5: > 32 µg/mL
K. pneumoniae NCTC418; Table S2, […] MH, pH 7.4
  MIC K. pneumoniae NCTC418 […] 7.4: 1 µg/mL
K. pneumoniae NCTC418; Table S2, […] MH, pH 8.5
  MIC K. pneumoniae NCTC418 […] 8.5: 1 µg/mL
K. pneumoniae NCTC418; Table S2, full MH, pH 7.4
  MIC K. pneumoniae NCTC418 Full MH 7.4: 4 µg/mL
K. pneumoniae NCTC418; Table S2, full MH, pH 8.5
  MIC K. pneumoniae NCTC418 Full MH 8.5: 4 µg/mL
K. pneumoniae NCTC418; […] MH vs full MH, K. pneumoniae
  Activity increase in dilute medium: 4 fold
PA14 2P4 (pmrB)
  MIC PA14 2P4 (pmrB): 2 µg/mL
P. aeruginosa PAO1 [3]; P. aeruginosa PAO1, […] MH at pH 8.5, up to 300 mM NaCl
  Antibacterial activity as a function of NaCl concentration: strongly reduced
P. aeruginosa PAO1 [3]; Table S2, […] MH, pH 7.4
  MIC P. aeruginosa PAO1 […] 7.4: 32 µg/mL
P. aeruginosa PAO1 [3]; Table S2, full MH, pH 7.4
  MIC P. aeruginosa PAO1 Full MH 7.4: > 32 µg/mL
P. aeruginosa PAO1 [3]; Table S2, full MH, pH 8.5
  MIC P. aeruginosa PAO1 Full MH 8.5: > 32 µg/mL
[4]
  MIC P. aeruginosa ZEM9A: 16 µg/mL
A. baumannii ATCC19606; ATCC19606, 4 h, pH 8.5
  MIC A. baumannii ATCC19606 Full MH 8.5: 8 µg/mL
A. baumannii ATCC19606; Table S2, […] MH, pH 7.4
  MIC A. baumannii ATCC19606 […] 7.4: 4 µg/mL
A. baumannii ATCC19606; Table S2, […] MH, pH 8.5
  MIC A. baumannii ATCC19606 […] 8.5: 4 µg/mL
A. baumannii ATCC19606; Table S2, full MH, pH 7.4
  MIC A. baumannii ATCC19606 Full MH 7.4: 32 µg/mL
A. baumannii ATCC19606; […] MH vs full MH, A. baumannii
  Activity increase in dilute medium: 4 fold
P. aeruginosa PAO1 [5]
  Bacteria count after treatment at 10x MIC and 2 h of incubation at 37 °C (% of control): 0.01 % of control
[6]; DichroWeb, Contin-LL
  CD %α with 5 mM DPC: 20%
  CD %α with 20% TFE: 23%
[6]; Table S2
  CD %α with 5 mM DPC: 20%
  CD %α with 20% TFE: 23%
